Measured values published in patent publication US6462086B1, “Non-malignant disease treatment with Ras antagonists” (Ramot University Authority for Applied Research and …, priority 1999, dated 2002).

What was measured:
[1] = tested on: cancers in animals mediated by oncogenic forms of Ras; conditions: cited from earlier work
Ras = Ras expression in rat liver membranes (Western blot); assay type: in vivo
Description: The levels of Ras proteins in the rat livers were determined by immunoblotting assays using anti Ras antibodies (PanRasAb03, Santa Cruz) as detailed previously (4, 5). Briefly, the livers were homogenized (10% w/v) in 0.32M sucrose, 50 mM Tris HCl, pH 7.4 buffer containing 3mM EDTA, 1 mM EGTA, 5 μg/ml pepstatine, and 5 units/ml opsotonin. Nuclei and cell debris were removed by a 10-minute 1000×g spin. The plasma membrane-enriched fraction was obtained by a 20,000×g 30 minute spin. The resulting pellets were resuspended in homogenization buffer and samples containing 20 μg proteins were used for 12.5% SDS-PAGE (mini gels). The gels were subjected to immunoblotting assays as described previously (4). Each western blot was analyzed 3 times and the data in FIG. 17 represent the means±SD OD of these 3 blots. Ras was also determined by immunohistochemistry.

human HSC = assay: PDGF-induced migration of human hepatic stellate cells (modified Boyden chamber); assay type: cell-based; conditions: PDGF-BB 10 ng/ml, 24 h FTS, read-out: FTS concentration inhibiting (50%) the PDGF-stimulated cell migration
Description: Human HSCs were isolated from wedge sections of normal human liver unsuitable for transplantation as previously reported (6, 7). Briefly, after a combined digestion with collagenase/pronase, HSCs were separated from other liver nonparenchymal cells by ultracentrifugation over gradients of stractan (Cellsep™ isotonic solution, Larex Inc., St. Paul, Minn.). Extensive characterization was performed as described in (7). Cells were cultured on plastic culture dishes (Falcon, Becton Dickinson, Lincoln Park, N.J.) in Iscove's modified Dulbecco's medium supplemented with 0.6 U/ml insulin, 2.0 mmol/L glutamine, 0.1 mmol/L nonessential amino acids, 1.0 mmol/L sodium pyruvate, antibiotic antifungal solution (all provided by Gibco Laboratories, Grand Island, N.Y.) and 20% fetal bovine serum (Imperial Laboratories, Andover, U.K.). Experiments described in this study were performed on cells between third and fifth serial passages (1:3 split ratio) using three independent cell lines.
Cell migration was carried out as previously described (9, 10). […] After fixing in 96% methanol and staining with Harris' hematoxylin solution, cells that migrated to the underside of the filters were quantitated as the mean number of cells in 10 high-power fields (HPF). […] Possible cytotoxic effects were monitored by the trypan blue exclusion test.

[2] = tested on: lymphocytes from naive SJL mice; assay: ConA- and LPS-induced proliferation of lymphocytes from naive SJL mice in vitro (3H-thymidine); assay type: cell-based; conditions: Mus musculus, Lymphocyte, 48 h stimulation
[3] = tested on: carotid balloon injury in Wistar rats; assay: Rat carotid balloon injury, intimal hyperplasia (morphometry); assay type: in vivo
Description: Group A: Four rats received daily intraperitoneal injections of FTS (5 mg/Kg) starting from the day of injury induction until sacrifice, 14 days later.
Group B: Four rats received daily intraperitoneal injections of control vehicle starting from the day of injury induction until sacrifice, 14 days later.
Animals were anesthetized by intraperitoneal injection of Ketamin (80 mg/Kg) and Xylazine (5 mg/Kg). […] Briefly, a balloon catheter (2F Fogarty) was passed through the external carotid into the aorta; the balloon was inflated with sufficient water to distend the common carotid artery and then pulled back to the external carotid. This procedure was repeated three times, and then the catheter was removed. After 14 days, the animals were sacrificed and the right and left carotid arteries were taken out and fixed in 4% paraformaldehyde until embedding in Paraffin. The arteries were cut in 10 um sections and stained with H&E and computer-assisted morphometric analyses were performed. The tested parameters were: intimal area, medial area, intimal/medial ratio and lumen area. Additionally, the %CSAN-N (% cross sectional area neointimal-neointamal) was calculated [IEL area-Lumen area]×100/IEL (a measure of the degree to which the IEL area is reduced by neointimal with greater normalization of the effect of changes in vessel wall size. Vasular remodeling process were further evaluated by computing the amount of plaque relative to the EEL (external elastic lamina) area.

EAN in Lewis rats = assay: EAN rats, electrophysiology (tail nerve stimulation, CMAP); assay type: in vivo, rat; conditions: day 20; FTS for 10 or 28 days
Description: The animal was anesthetized with phenobarbital. […] Previous experience has shown that smaller amounts are necessary during the acute EAN disease phase in order to avoid mortality. Mono-polar needle electrodes were used to stimulate the sciatic nerve and the response was measured in the plantar muscle by a surface ring electrode (8). Alternatively, the tail nerves were stimulated and tail muscle response measured by the same electrodes. […] The tail response was therefore be used in the early disease stage (days 18-22). The latency of responses to distal and proximal stimulation were used to calculate nerve conduction velocity. The amplitude of the responses was used to assess conduction block. Electrophysiological assays were performed on day 20 in the 3 groups of rats described in the previous section.

[4] = tested on: lymphocytes from draining lymph nodes of EAE SJL mice; assay: Ex vivo proliferative responses of lymph node lymphocytes from FTS-treated EAE mice; assay type: in vivo, mouse; conditions: for proliferative response of lymphocytes (cpm): FTS 5 mg/Kg i.p. daily, day 10
[5] = FTS-treated mice compared to controls

CC(C)=CCC/C(C)=C/CC/C(C)=C/CSc1ccccc1C(=O)O [FTS, farnesyl thiosalicylic acid]
reduction in cancer cell growth ([1]; cancers in animals, in some cases): greater than 90%
body weight, specific organs size, blood count and chemistry ([1]; earlier studies in FTS-treated animals): no alteration
doses that effectively inhibited tumor growth ([1]; previous animal studies): 3 to 10 mg/kg
effect on normal cells ([1]; similar dosages as in cancer treatment): very little, if any, effect on normal cells
decrease in Ras expression in the livers of TAA-treated rats (Ras; FTS treatment): 70%
Ras levels in liver membranes, fold higher than control group (Ras; TAA+FTS treated group, TAA alone 17.6±2.0-fold): 4.9±1.2 fold
IC50 (human HSC): 2000 to 2500 nM
inhibition at 12.5 µM ([2]; 12.5 μM FTS): 22 to 50%
inhibition at 25 µM ([2]; 25 μM FTS): 66 to 71%
inhibition at 50 µM ([2]; 50 μM FTS): 95 to 98%
reduction of intimal area ([3]; FTS 5 mg/Kg i.p. daily 14 days vs control): 76%
medial area ([3]; FTS 5 mg/Kg i.p. daily 14 days, control 1.2±0.14): 0.91 mm^2
Intimal area ([3]; FTS 5 mg/Kg i.p. daily 14 days, control 1.61): 0.38 mm^2
luminal area ([3]; FTS 5 mg/Kg i.p. daily 14 days, control 2.30): 1.45±0.34 mm^2
%CSAN-N ([3]; FTS 5 mg/Kg i.p. daily 14 days, control 52.4±7.4): 15.5±4.3%
compound muscle action potentials (CMAPs), tail muscle (EAN in Lewis rats): significant amelioration
change of reactivity to ConA [4, 5]: no change of reactivity
decrease in the reactivity of lymphocytes to GMBP [4, 5]: 83%
decrease in the reactivity of lymphocytes to PLP-peptide [4, 5]: 72%
decrease of the reactivity to PPD and to LPS [4, 5]: 50-57%
proliferative response of lymphocytes (cpm) ([4]; antigen: GMBP): 7,864 ± 636 cpm
stimulation index (S.I.) ([4]; antigen: GMBP, FTS-treated EAE mice): 1.8
proliferative response of lymphocytes (cpm) ([4]; antigen: PLP): 8,901 ± 2,014 cpm
stimulation index (S.I.) ([4]; antigen: PLP, FTS-treated EAE mice): 2.1
proliferative response of lymphocytes (cpm) ([4]; antigen: PPD): 27,342 ± 3,627 cpm
stimulation index (S.I.) ([4]; antigen: PPD, FTS-treated EAE mice): 6.4
proliferative response of lymphocytes (cpm) ([4]; antigen: none): 4,266 ± 508 cpm
reduction in response to myelin specific antigens ([4]; ex vivo, FTS-treated EAE mice): > 78%
proliferative response of lymphocytes (cpm) ([4]; mitogen: ConA): 86,870 ± 7,483 cpm
stimulation index (S.I.) ([4]; mitogen: ConA, FTS-treated EAE mice): 20.4
proliferative response of lymphocytes (cpm) ([4]; mitogen: LPS): 45,196 ± 4,246 cpm
stimulation index (S.I.) ([4]; mitogen: LPS, FTS-treated EAE mice): 10.6
